Experimental data taken from US20210032257A1, “(E)-1-(4-(DIMETHYLAMINO)BUT-2-ENOYL)PYRROLIDIN-3-YL 4-((3-ISOPROPYL-5-METHYLPYRAZOLO[1,5-A]PYRIMIDIN-7-YL)AMINO)PIPERIDINE-1-CARBOXYLATE FOR INHIBITING CDK7” (Eli Lilly and Company, priority 2017, published 2021).

Columns and labels:
cMyc in HCT116 cells = experiment: cMyc cell based Acumen assay; conditions: Homo sapiens, HCT-116, 4 hours, read-out: Relative IC50 for cMyc
[1] = test system: phospho-carboxyl terminal domain (Ser2) in HCT116 cells; experiment: p-CTD (S2) cell based Acumen assay; conditions: Homo sapiens, HCT-116, 4 hours, read-out: relative IC50 for phosphoCTD (S2)
Procedure: HCT116 cells (ATCC CCL-247) are cultured in McCoy's 5A Medium Modified media supplemented with 10% FBS, 1% NaPyr and 1% Pen/Strep and plated (prior to becoming 70% confluent) in 96-well flat-bottom plates at a density of 5,000 cells per well in 100 μL volume. The cells are then incubated overnight in a cell culture incubator (5% CO2, 95% Relative Humidity (RH) and 37° C.) and allowed to attach to the plate. The following morning the cells are dosed with compounds. Compound inhibitors are first solubilized at 60 μM in culture medium containing 0.6% DMSO. Subsequently compound serial dilutions (1:3) are prepared over a […] to […] range. […]
The following day cells are washed three times with PBS (100 μL/well) and incubated with 50 μL/well of secondary antibody (1:2000 dilution, Goat anti-rabbit IgM ALEXA FLUOR™ 488) in PBS for 1 hour at RT. […] Plates are analyzed on Acumen on FL2 (mean intensity), and FL3 (total intensity). Fluorescence plates are scanned with ACUMEN EXPLORER™ [Laser-scanning fluorescence microplate cytometer manufactured by TTP LABTECH LTD] to measure anti-phospho-carboxyl terminal domain at Serine 2 (pCTD). […]
The IC50 is determined by curve fitting to a four parameter logistic for each output using GENE DATA™.

CDK7/CyclinH/Mat1 = CDK7/CyclinH/Mat1 (Homo sapiens, UniProt P50613); experiment: Biochemical assay for inhibition of CDK7/CyclinH/MAT1 (radiolabel filter binding)
[2] = test system: ARID1A mutants cancer cell lines; experiment: Biomarker study: distribution of anti-proliferation effects; format: cell-based
Procedure: (§1) Cancer cell lines are profiled to evaluate the anti-proliferative activity of a test compound in-vitro. Mutation, copy number and gene expression information of ARID1A, KMT2C, KMT2D and/or RB1 genes across cancer cell lines is obtained from COSMIC database (cancer.sanger.ac.uk) and cBioportal (http://www.cbioportal.org/). Cells are cultured in growth medium and plated into a 96-well plate in 100 μL/well growth medium at 5000 cells/well then incubated at 37° C., 5% CO2 overnight. Cells are cultured using supplier recommended media and conditions well known in the art, for example with RPMI 1640 with or without HEPES & L-Glutamine (Thermo SH30255.01) and 1 mM Sodium Pyruvate, and 10% FBS(Gibco cat #10082). The 1000× intermediate dilution plate is prepared by making a 10 mM working solution of a test sample in DMSO and performing 1:3 dilutions in DMSO for 10 points. The 10× dosing plate is prepared by adding 2 μL from the 1000× intermediate dilution plate to 198 μL of OPTIMEM®+10% FBS and mixing well. The cell plate is then treated by adding 11 μL from the 10× dosing plate into the 100 μL/well cell plate for a 1× final concentration. Staurosporine is used as a maximum growth inhibition control at a final concentration of 5 μM. The cell plate is incubated for 7 days at 37° C., 5% CO2. Seven days after treatment, Cell Titer-Glo® (Promega cat #G7571) assay buffer and substrate are removed from −20° C. and allowed to equilibrate to RT. Assay buffer is added to the substrate and swirled gently to mix. The CELL TITER-GLO® reagent (100 μL/well) is added to the cell plate and incubated at RT for 15 minutes. After 15 minutes, luminescence is read using a plate reader. Data is analyzed in Excel and graphed in GraphPad Prism. Statistical analysis and p value is calculated using Mann-Whitney nonparameteric t tests using GraphPad Prism.
(§2) Anti-proliferative effects of a test compound are categorized as insensitive (IC50≥1 μM), cytostatic (IC50<1 μM and % inhibition <70%) or cytotoxic (IC50<1 μM and % inhibition ≥70%).

[3] = test system: KMT2D mutants cancer cell lines; experiment: as above; format: cell-based
Procedure: as §1, §2

[4] = test system: RB1 mutants cancer cell lines; experiment: as above; format: cell-based
Procedure: as §1, §2

[5] = test system: KMT2C mutants cancer cell lines; experiment: as above; format: cell-based
Procedure: as §1, §2

[6] = test system: Others (cancer cell lines); experiment: as above; format: cell-based
Procedure: as §1, §2

CDK7/CyclinH/Mat1, sequence (P50613 whole entry): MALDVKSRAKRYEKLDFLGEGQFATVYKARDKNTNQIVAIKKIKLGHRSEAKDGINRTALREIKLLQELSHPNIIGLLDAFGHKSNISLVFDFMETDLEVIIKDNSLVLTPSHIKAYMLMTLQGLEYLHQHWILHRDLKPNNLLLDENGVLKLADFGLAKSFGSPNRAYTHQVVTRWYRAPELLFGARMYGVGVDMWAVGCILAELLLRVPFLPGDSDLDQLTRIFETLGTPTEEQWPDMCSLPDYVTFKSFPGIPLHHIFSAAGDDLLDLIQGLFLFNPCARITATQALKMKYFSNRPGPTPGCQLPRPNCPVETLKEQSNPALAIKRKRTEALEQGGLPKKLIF
CDK7/CyclinH/Mat1, sequence (P51946 whole entry partner): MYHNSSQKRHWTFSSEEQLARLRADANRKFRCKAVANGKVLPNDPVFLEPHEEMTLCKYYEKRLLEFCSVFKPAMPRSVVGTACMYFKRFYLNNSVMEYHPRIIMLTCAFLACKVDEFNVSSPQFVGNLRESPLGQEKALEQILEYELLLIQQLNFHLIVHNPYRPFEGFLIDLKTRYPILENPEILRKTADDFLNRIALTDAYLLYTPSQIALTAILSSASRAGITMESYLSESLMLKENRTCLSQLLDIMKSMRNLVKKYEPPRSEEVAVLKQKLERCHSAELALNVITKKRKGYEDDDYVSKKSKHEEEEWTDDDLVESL
CDK7/CyclinH/Mat1, sequence (P51948 whole entry partner): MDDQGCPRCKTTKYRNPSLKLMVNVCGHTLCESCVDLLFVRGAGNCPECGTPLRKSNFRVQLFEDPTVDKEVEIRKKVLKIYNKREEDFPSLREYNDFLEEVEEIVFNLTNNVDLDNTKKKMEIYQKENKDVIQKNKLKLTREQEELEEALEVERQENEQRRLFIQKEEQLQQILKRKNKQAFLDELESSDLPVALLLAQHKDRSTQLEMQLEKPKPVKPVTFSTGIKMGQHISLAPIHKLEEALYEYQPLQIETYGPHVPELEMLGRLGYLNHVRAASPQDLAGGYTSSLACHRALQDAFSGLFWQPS

In the case of `Cc1cc(NC2CCN(C(=O)O[C@H]3CCN(C(=O)/C=C/CN(C)C)C3)CC2)n2ncc(C(C)C)c2n1` [Example 1, [(3S)-1-[(E)-4-(dimethylamino)but-2-enoyl]pyrrolidin-3-yl] 4-[(3-isopropyl-5-methyl-pyrazolo[1,5-a]pyrimidin-7-yl)amino]piperidine-1-carboxylate], the IC50 (cMyc in HCT116 cells) is reported as 82.8 nM, the IC50 [1] is reported as greater than 2000 nM and the IC50 (CDK7/CyclinH/Mat1; IC50 in CDK7, 3 hours of preincubation of CDK7 enzyme) is reported as 2.37 nM. The IC50 (CDK7/CyclinH/Mat1; IC50 in CDK7, without preincubation) was 17.3 nM, the “Distribution (%) of anti-proliferation effects: Cytotoxic (IC50 <1 μM, % Inh. ≥70)” value (“Distribution (%)” below) [2] was 64%, n = 25 and the “Distribution (%)” value [3] was 76%, n = 19. The “Distribution (%)” value [4] was 54%, n = 22, the “Distribution (%)” value [5] was 70%, n = 7 and the “Distribution (%)” value [6] was 40%, n = 41.
